Key:
[1] = tested on: Human Beta Defensin (HBD) 2; test: HBD2 expression in normal human keratinocytes (NHEK); format: cell-based; set-up: unit not given here; conditions: Example 2
Procedure: (§1) To assess the effect of pimecrolimus on the innate immune response of the epidermis, cultures of normal human keratinocytes (NHEK) are stimulated with combinations of a concentration of 10 nM pimecrolimus, 1 μg/ml TLR 2/CD14 ligand—peptidoglycan (PGN), 10 μg/ml lipoteichoic acid (LTA), 2 0.1 μg/ml TLR 2/6 ligand—Malp-, and/or 0.1 μg/ml TLR 4/CD14 ligand—lipopolysaccharide (LPS). Expression of cathelicidin mRNA (Table 3) and protein as well as Human Beta Defensin (HBD) 2 (Table 4) and HBD3 (Table 5) expression in normal human keratinocytes is measured.

[2] = tested on: Staphylococcus aureus ΔmprF; test: Direct co-incubation of Pimecrolimus with S. aureus ΔmprF cultures (OD600); format: cell-based; conditions: for Bacterial growth OD600 (Mean): 10 nM Pimecrolimus co-incubated with S. aureus, no keratinocyte lysate, 37° C.
Procedure: (§2) To assess the effect of pimecrolimus on the innate immune response of the epidermis against bacteria, cultures of normal human keratinocytes (NHEK) are stimulated with a concentration of 10 nM pimecrolimus, 1 nM 1.25D3 (active 1.25 D-hydroxy calciferol) or their combination. Cells are lysed via sonication 20 minutes in an ice bath, after which cell lysates were mixed with Staphylococcus aureus ΔmprF cultures and incubated at 37° C. Bacterial growth over time is monitored by OD600 (Table 1). To determine if Pimecrolimus alone was able to kill Staphylococcus aureus ΔmprF, Pimecrolimus in a concentration of 10 nM is co-incubated with Staphylococcus aureus ΔmprF cultures and incubated at 37° C. (Table 2). Bacterial growth is monitored by OD600 (*: p<0.05; **: p<0.01; Student's t-test).

[3] = tested on: TLR1; test: TLR1 gene expression by qPCR in NHEK; format: cell-based, human; conditions: Example 3; 10 nM pimecrolimus, 1 nM 1.25D3
Procedure: (§3) To assess the effect of pimecrolimus on the innate immune response of the epidermis, cultures of normal human keratinocytes (NHEK) are stimulated with a combination of a concentration of 10 nM pimecrolimus and of 1 nM 1.25D3. Gene expression of TLR1, TLR2, TLR4, TLR6 and CD14 are evaluated by qPCR. For CD14 protein expression, a Western Blot is performed and bands are quantified by densitometry using lmagej. Vehicle treated keratinocytes serve as controls. Cathelicidin protein expression is evaluated by immunofluorescence staining.

[4] = tested on: TLR6; test: TLR6 gene expression by qPCR in NHEK; format: cell-based, human; conditions: Example 3; 10 nM pimecrolimus, 1 nM 1.25D3
Procedure: as §3

[5] = tested on: TLR2; test: TLR2 gene expression by qPCR in NHEK; format: cell-based, human; conditions: for TLR2 mRNA expression (Mean): 10 nM pimecrolimus; for TLR2 mRNA expression (Means of N = 3): Example 6, 10 nM Pimecrolimus, 1 nM 1,25D3; for TLR2 gene expression (Mean): Example 8, 24 hours
Procedure: as §3
(§4) To assess the effect of pimecrolimus on the innate immune response of the epidermis, cultures of normal human keratinocytes (NHEK) are stimulated with a concentration of 10 nM pimecrolimus,1 nM 1.25 D3, 0.1 μg/ml TLR2/6 ligand Malp-2 or their combination. Expression of cathelicidin, CD14 and TLR2 mRNA normal human keratinocytes is measured and evaluated accordingly to the procedures as detailed in Example 2 above.
(§5) To assess the effect of time dependent effects of pimecrolimus on the innate immune response of the epidermis, cultures of normal human keratinocytes (NHEK) are stimulated with 10 nM Pimecrolimus and low dose calciferol (1,25D3) 1 nM for different time points. mRNA expression of cathelicidin, CD14 and TLR2 is analyzed by qPCR.
To assess the effect of calciferol on varying levels of pimecrolimus on the innate immune response of the epidermis, cultures of normal human keratinocytes (NHEK) are stimulated with 0.01 nM, 0.1 nM, 1 nM and 10 nM concentrations of pimecrolimus with or without 1 nM concentrations of calciferol for 24 hours. Expression of cathelicidin mRNA and gene expression of TLR2 is measured and evaluated accordingly to the procedures as detailed in Example 2 above.

[6] = tested on: Staphylococcus aureus ΔmprF; test: Growth of S. aureus ΔmprF (OD600) mixed with lysates of stimulated normal human keratinocytes; format: cell-based; conditions: for Bacterial growth OD600 (Mean): S. aureus + lysates of NHEK stimulated with 10 nM pimecrolimus, 1 nM 1.25D3 or combination, 37° C.
Procedure: as §2

[7] = tested on: CD14; test: CD14 gene expression by qPCR in NHEK; format: cell-based, human; conditions: for CD14 mRNA expression (Mean): 10 nM pimecrolimus; for CD14 mRNA expression (Means of N = 3): Example 6, 10 nM Pimecrolimus, 1 nM 1,25D3
Procedure: as §3, §4, §5

[8] = tested on: HBD3; test: HBD3 expression in normal human keratinocytes (NHEK); format: cell-based; set-up: unit not given here; conditions: Example 2
Procedure: as §1

[9] = with 10 nM Pimecrolimus + 0.1 μg/ml LPS
[10] = with 10 nM Pimecrolimus + 0.1 μg/ml Malp-2
[11] = with 10 nM Pimecrolimus + 1 μg/ml PGN
[12] = with 10 nM Pimecrolimus + 10 μg/ml LTA
[13] = with 10 nM Pimecrolimus, no TLR ligand (control row)
[14] = Example 4, 1 nM 1.25 D3, 0.1 μg/ml Malp-2 or combination
[15] = in the presence of low dose 1,25D3 and Malp-2

**Q.** Which “HBD2 expression (Mean)” value [1, 9] does the source give for `CC[C@@H]1/C=C(\C)C[C@H](C)C[C@H](OC)[C@H]2O[C@@](O)(C(=O)C(=O)N3CCCC[C@H]3C(=O)O[C@H](/C(C)=C/[C@@H]3CC[C@H](Cl)[C@H](OC)C3)[C@H](C)[C@@H](O)CC1=O)[C@H](C)C[C@@H]2OC` [Pimecrolimus, pimecrolimus] here?
**A.** 1.34

**Q.** And the “HBD2 expression (Mean)” value [1, 10]?
**A.** 867.92

**Q.** What about the “HBD2 expression (Mean)” value [1, 11] of the same molecule?
**A.** 0.51

**Q.** And the “HBD2 expression (Mean)” value [1, 12]?
**A.** 1.77

**Q.** What about the “HBD2 expression (Mean)” value [1, 13] of the same molecule?
**A.** 6.53

**Q.** What about the “Bacterial growth OD600 (Mean)” value ([2]; 0 h) of the same molecule?
**A.** 0.3083

**Q.** What about the “Bacterial growth OD600 (Mean)” value ([2]; 2 h) of the same molecule?
**A.** 0.3387

**Q.** And the “Bacterial growth OD600 (Mean)” value ([2]; 4 h)?
**A.** 0.4157

**Q.** And the “Bacterial growth OD600 (Mean)” value ([2]; 5 h)?
**A.** 0.4333

**Q.** And the “Bacterial growth OD600 (Mean)” value ([2]; 6 h)?
**A.** 0.4227

**Q.** What about the “Bacterial growth OD600 (Mean)” value ([2]; 8 h) of the same molecule?
**A.** 0.601

**Q.** And the “Direct antimicrobial effect (in words)” value ([2]; summary of Table 2)?
**A.** does not have an antimicrobial effect by itself

**Q.** What about the “TLR1 mRNA expression (Mean)” value [3] of the same molecule?
**A.** 3.16

**Q.** And the “TLR6 mRNA expression (Mean)” value [4]?
**A.** 4.40

**Q.** And the “TLR2 mRNA expression (Mean)” value ([5]; Example 3, 1 nM 1.25D3)?
**A.** 1.80

**Q.** What about the “TLR2 mRNA expression (Mean)” value [5, 14] of the same molecule?
**A.** 0.29

**Q.** What about the “TLR2 mRNA expression (Means of N = 3)” value ([5]; 0 h) of the same molecule?
**A.** 1.00

**Q.** And the “TLR2 mRNA expression (Means of N = 3)” value ([5]; 8 h)?
**A.** 0.64

**Q.** And the “TLR2 mRNA expression (Means of N = 3)” value ([5]; 24 h)?
**A.** 1.31

**Q.** And the “TLR2 mRNA expression (Means of N = 3)” value ([5]; 48 h)?
**A.** 1.51

**Q.** And the “TLR2 gene expression (Mean)” value ([5]; 0.01 nM PIM with 1 nM 1.25D3)?
**A.** 0.82

**Q.** And the “TLR2 gene expression (Mean)” value ([5]; 0.01 nM PIM, no 1.25D3)?
**A.** 0.73

**Q.** And the “TLR2 gene expression (Mean)” value ([5]; 0.1 nM PIM with 1 nM 1.25D3)?
**A.** 0.57

**Q.** And the “TLR2 gene expression (Mean)” value ([5]; 0.1 nM PIM, no 1.25D3)?
**A.** 0.59

**Q.** What about the “TLR2 gene expression (Mean)” value ([5]; 1 nM PIM with 1 nM 1.25D3) of the same molecule?
**A.** 1.07

**Q.** And the “TLR2 gene expression (Mean)” value ([5]; 1 nM PIM, no 1.25D3)?
**A.** 0.98

**Q.** And the “TLR2 gene expression (Mean)” value ([5]; 10 nM PIM with 1 nM 1.25D3)?
**A.** 3.94

**Q.** And the “TLR2 gene expression (Mean)” value ([5]; 10 nM PIM, no 1.25D3)?
**A.** 1.80

**Q.** And the “TLR2 expression (in words)” value [5, 15]?
**A.** increasing

**Q.** And the “Bacterial growth OD600 (Mean)” value ([6]; 0 h)?
**A.** 0.2253

**Q.** And the “Bacterial growth OD600 (Mean)” value ([6]; 2 h)?
**A.** 0.2557

**Q.** What about the “Bacterial growth OD600 (Mean)” value ([6]; 4 h) of the same molecule?
**A.** 0.2807

**Q.** What about the “Bacterial growth OD600 (Mean)” value ([6]; 5 h) of the same molecule?
**A.** 0.343

**Q.** What about the “Bacterial growth OD600 (Mean)” value ([6]; 6 h) of the same molecule?
**A.** 0.4507

**Q.** And the “Bacterial growth OD600 (Mean)” value ([6]; 8 h)?
**A.** 0.6843

**Q.** And the “Antimicrobial effect of keratinocytes against S. aureus ΔmprF (in words)” value ([6]; summary of Table 1)?
**A.** increases the ability of keratinocytes to kill Staphylococcus aureus ΔmprF

**Q.** What about the “CD14 mRNA expression (Mean)” value ([7]; Example 3, 1 nM 1.25D3) of the same molecule?
**A.** 2.07

**Q.** And the “CD14 mRNA expression (Mean)” value [7, 14]?
**A.** 2.07

**Q.** And the “CD14 mRNA expression (Means of N = 3)” value ([7]; 0 h)?
**A.** 1.54

**Q.** What about the “CD14 mRNA expression (Means of N = 3)” value ([7]; 8 h) of the same molecule?
**A.** 1.46

**Q.** What about the “CD14 mRNA expression (Means of N = 3)” value ([7]; 24 h) of the same molecule?
**A.** 2.10

**Q.** What about the “CD14 mRNA expression (Means of N = 3)” value ([7]; 48 h) of the same molecule?
**A.** 1.04

**Q.** And the “Effect on 1,25D3-induced CD14 mRNA expression (in words)” value ([7]; after 8 hours of treatment)?
**A.** suppressed

**Q.** And the “Effect on 1,25D3-induced CD14 mRNA expression (in words)” value ([7]; after 24 hours)?
**A.** enhanced

**Q.** What about the “CD14 expression (in words)” value [7, 15] of the same molecule?
**A.** increasing

**Q.** What about the “HBD3 expression (Mean)” value [8, 9] of the same molecule?
**A.** 1.06

**Q.** What about the “HBD3 expression (Mean)” value [8, 10] of the same molecule?
**A.** 28.59

**Q.** And the “HBD3 expression (Mean)” value [8, 11]?
**A.** 1.24

**Q.** What about the “HBD3 expression (Mean)” value [8, 12] of the same molecule?
**A.** 0.72

**Q.** What about the “HBD3 expression (Mean)” value [8, 13] of the same molecule?
**A.** 0.72

Reference: US20090088373A1, “USE OF COMPOSITIONS TO ENHANCE INNATE IMMUNE RESPONSE” (priority 2007, published 2009)
